# Starred links: 1 amine or outer side, 2 acyl side, 3 side chain; linkers in the order of their positions; H or OH if unused. Positions of bridges follow the written chain, without caps; N, C: chain ends. Non-standard residues stand in square brackets, D forms with d. Residues, ends and D or L forms follow the SMILES beside them. Triazole bridges read from a SMILES are 1,4-linked. X38 = NC(=O)[C@H](CSCc1cccc(C[*:1])c1)NC(=O)[C@@H]1CCCC1C(=O)[C@H](Cc1ccc(OCC2CCCCC2)cc1)N[*:2]; Phe(3-CH2NH2) = O=C([C@H](Cc1cccc(CN[*:3])c1)N[*:1])[*:2]; Trp(5-F) = N[C@@H](Cc1c[nH]c2ccc(F)cc12)C(=O)O; X17 = O=C(CCSCc1ccc(CSCCN[*:1])cc1)[*:2]; Lys(N3) = [N-]=[N+]=NCCCC[C@H](N)C(=O)O; Pro(4S-NH2) = N[C@@H]1CN[C@H](C(=O)O)C1; X4 = O=C(CCSCc1cccc(CSCCN[*:1])c1)[*:2]; dGly(cPent) = N[C@@H](C(=O)O)C1CCCC1; mXylylene = c1cc(C[*:1])cc(C[*:2])c1; d(aThr) = C[C@@H](O)[C@@H](N)C(=O)O; Aad = N[C@@H](CCCC(=O)O)C(=O)O; αMeP = C[C@@]1(C(=O)O)CCCN1; Hpra = C#CCC[C@H](N)C(=O)O; Orn = NCCC[C@H](N)C(=O)O; dDap = NC[C@@H](N)C(=O)O; Mpa = O=C(O)CCS
# How the values were obtained:
# [1] = target: human PCSK9 / human LDLR EGFa domain interaction (Homo sapiens (Human), UniProt Q8NBP7); experiment: TR-FRET assay of inhibition of the PCSK9-LDLR protein-protein interaction; type: binding; details: TR-FRET, 20 nM human PCSK9, 20 nM human LDLR EGFa domain, 2 hours room temperature; read-out: IC50
# Sequence of human PCSK9 / human LDLR EGFa domain interaction (Q8NBP7 153-692): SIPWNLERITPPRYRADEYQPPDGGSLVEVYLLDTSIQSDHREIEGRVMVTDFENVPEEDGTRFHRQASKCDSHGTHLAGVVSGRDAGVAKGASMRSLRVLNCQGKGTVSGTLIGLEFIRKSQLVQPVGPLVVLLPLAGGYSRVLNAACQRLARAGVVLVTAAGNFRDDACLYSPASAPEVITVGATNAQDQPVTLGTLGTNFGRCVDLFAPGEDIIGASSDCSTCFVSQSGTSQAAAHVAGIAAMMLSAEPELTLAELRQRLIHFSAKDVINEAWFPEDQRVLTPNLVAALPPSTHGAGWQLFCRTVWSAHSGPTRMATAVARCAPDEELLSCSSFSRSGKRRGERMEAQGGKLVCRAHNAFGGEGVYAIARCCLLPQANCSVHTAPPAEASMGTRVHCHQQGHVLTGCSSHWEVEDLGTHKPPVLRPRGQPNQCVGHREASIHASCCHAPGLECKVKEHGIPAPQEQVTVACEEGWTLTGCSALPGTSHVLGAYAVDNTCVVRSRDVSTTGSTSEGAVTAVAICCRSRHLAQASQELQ
# Sequence of human PCSK9 / human LDLR EGFa domain interaction (Q8NBP7 31-152 partner): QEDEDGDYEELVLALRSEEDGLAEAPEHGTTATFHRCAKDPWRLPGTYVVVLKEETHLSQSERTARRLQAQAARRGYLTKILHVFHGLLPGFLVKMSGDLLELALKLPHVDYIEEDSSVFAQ
# In short: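 Biotinylated PCSK9 (20 nM) and His-tagged LDLR EGFa domain (20 nM) were incubated 2 h at room temperature with 5 nM Ulight-streptavidin and 5 nM Eu-anti-His in HEPES/NaCl/CaCl2 buffer with 0.01% BSA and 0.01% P20. TR-FRET was read; half-maximal inhibitory concentrations came from 4-parameter dose-response fits.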
# PCSK9 = PCSK9 (Homo sapiens (Human), UniProt Q8NBP7); experiment: PCSK9 Alexa FRET Standard assay (displacement of AlexaFluor647 tagged cyclic peptide Reagent A); type: binding; details: PCSK9 Alexa FRET Standard assay, 0.5 nM PCSK9, 20 nM AF cyclic peptide Reagent A; read-out: IC50
# Sequence of PCSK9 (Q8NBP7 153-692): as the sequence (Q8NBP7 153-692) above
# In short: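 TR-FRET displacement: 0.5 nM biotinylated PCSK9 with 1.25 nM Strep-Eu and 20 nM AlexaFluor-tagged cyclic peptide (final) in 50 mM HEPES pH 7.4, 0.15 M NaCl, 5 mM CaCl2, 0.01% BSA, 0.01% P20, ≥2 h at room temperature. IC50 from sigmoidal fit, converted to Ki via peptide KD; falling Eu counts flagged false positives.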
SMILES,IC50 [1],IC50 (PCSK9)
NCCC[C@@H]1NC(=O)CCSCc2cccc(c2)CSC[C@@H](C(N)=O)NC(=O)[C@@H]2CCCC2C(=O)[C@H](Cc2ccc(OCC3CCCCC3)cc2)NC(=O)[C@H](Cc2cnc[nH]2)NC(=O)[C@H](CC(=O)O)NC(=O)[C@H](Cc2c[nH]c3ccc(F)cc23)NC(=O)[C@H](Cc2c[nH]c3ccc(F)cc23)NC(=O)CNC1=O (stereo partly shown) [Compound 340] ([Mpa][Orn]G[Trp(5-F)][Trp(5-F)]DH; linker 1-C via X38),0.0001 to 0.1 µM,0.1 to 1 µM
COc1ccc(C[C@@H]2NC(=O)[C@H](Cc3c[nH]cn3)NC(=O)[C@H](CC(=O)O)NC(=O)[C@H](Cc3c[nH]c4ccc(F)cc34)NC(=O)[C@H](Cc3c[nH]c4ccc(F)cc34)NC(=O)[C@@H](C3CCCC3)NC(=O)[C@H](CCCCN)NC(=O)CCSCc3cccc(c3)CSCCNC(=O)[C@]3(C)CCCN3C2=O)cc1 [Compound 344] (cyclo(DHY(Me)[αMeP][X4]K[dGly(cPent)][Trp(5-F)][Trp(5-F)])),21 to 50 µM,21 to 50 µM
COc1ccc(C[C@@H]2NC(=O)[C@H](CCCC(=O)O)NC(=O)[C@@H]3C[C@H](N)CN3C(=O)[C@H](Cc3c[nH]c4ccc(F)cc34)NC(=O)[C@H](Cc3c[nH]c4ccc(F)cc34)NC(=O)[C@@H](C)NC(=O)[C@H](C)NC(=O)CCSCc3ccc(cc3)CSCCNC(=O)[C@]3(C)CCCN3C2=O)cc1 [Compound 345] (cyclo(A[dA][Trp(5-F)][Trp(5-F)][Pro(4S-NH2)][Aad]Y(Me)[αMeP][X17])),21 to 50 µM,21 to 50 µM
COc1ccc(C[C@@H]2NC(=O)[C@@H]([C@@H](C)O)NC(=O)[C@H](CCCC(=O)O)NC(=O)[C@H](Cc3c[nH]c4ccc(F)cc34)NC(=O)[C@H](Cc3cccc(CN)c3)NC(=O)[C@@H](C)NC(=O)[C@H](C)NC(=O)CCSCc3cccc(c3)CSCCNC(=O)[C@]3(C)CCCN3C2=O)cc1 [Compound 346] (cyclo(A[dA][Phe(3-CH2NH2)][Trp(5-F)][Aad][d(aThr)]Y(Me)[αMeP][X4])),0.0001 to 0.1 µM,1 to 12.1 µM
COc1ccc(C[C@@H]2NC(=O)[C@H](Cc3cnc[nH]3)NC(=O)[C@H](CC(=O)O)NC(=O)[C@H](Cc3c[nH]c4ccc(F)cc34)NC(=O)[C@H](Cc3c[nH]c4ccc(F)cc34)NC(=O)[C@@H](C)NC(=O)[C@H](CCCCN)NC(=O)[C@@H](NC(C)=O)CCCc3cn(nn3)-c3ccc(cc3)C[C@@H](C(N)=O)NC(=O)[C@]3(C)CCCN3C2=O)cc1 [Compound 353],21 to 50 µM,21 to 50 µM

# The remaining lines, values ahead:
IC50 [1],IC50 (PCSK9),SMILES
1 to 12.1 µM,1 to 12.1 µM,CC(=O)N[C@H]1CCc2cn(nn2)CCCC[C@@H](C(N)=O)NC(=O)[C@]2(C)CCCN2C(=O)[C@H](Cc2ccc(O)cc2)NC(=O)[C@H](Cc2cnc[nH]2)NC(=O)[C@H](CC(=O)O)NC(=O)[C@H](Cc2c[nH]c3ccc(F)cc23)NC(=O)[C@H](Cc2c[nH]c3ccc(F)cc23)NC(=O)CNC(=O)[C@H](C)NC1=O [Compound 339] (Ac-[Hpra]AG[Trp(5-F)][Trp(5-F)]DHY[αMeP][Lys(N3)]-NH2; triazole 1-10)
1 to 12.1 µM,1 to 12.1 µM,CC(=O)N[C@H]1CCCc2cn(nn2)CCC[C@@H](C(N)=O)NC(=O)[C@]2(C)CCCN2C(=O)[C@H](Cc2ccc(O)cc2)NC(=O)[C@H](Cc2cnc[nH]2)NC(=O)[C@H](CC(=O)O)NC(=O)[C@H](Cc2c[nH]c3ccc(F)cc23)NC(=O)[C@H](Cc2c[nH]c3ccc(F)cc23)NC(=O)CNC(=O)[C@H](C)NC1=O [Compound 342]
21 to 50 µM,21 to 50 µM,C[C@@]12CCCN1C(=O)[C@H](Cc1ccc(O)cc1)NC(=O)[C@H](Cc1cnc[nH]1)NC(=O)[C@H](CC(=O)O)NC(=O)[C@H](Cc1c[nH]c3ccc(F)cc13)NC(=O)[C@H](Cc1c[nH]c3ccc(F)cc13)NC(=O)CNC(=O)[C@@H](CN)NC(=O)CCSCc1cccc(c1)CSC[C@@H](C(N)=O)NC2=O [Compound 354] ([Mpa][dDap]G[Trp(5-F)][Trp(5-F)]DHY[αMeP]C-NH2; linker 1-10 via mXylylene)

# Reference: patent US11530244B2, “Cyclic polypeptides for PCSK9 inhibition” (priority 2018, dated 2022)
